What was measured:
[1] = biological target: HeV F and HeV G glycoproteins (Hendra virus, UniProt O89342); type: cell-based
[2] = biological target: NiV F and NiV G glycoproteins (Nipah virus, UniProt Q9IH63); type: cell-based
[3] = test system: live HeV
[4] = test system: live NiV

Chain of NiV F and NiV G glycoproteins (Q9IH63 110-546 limits assumed): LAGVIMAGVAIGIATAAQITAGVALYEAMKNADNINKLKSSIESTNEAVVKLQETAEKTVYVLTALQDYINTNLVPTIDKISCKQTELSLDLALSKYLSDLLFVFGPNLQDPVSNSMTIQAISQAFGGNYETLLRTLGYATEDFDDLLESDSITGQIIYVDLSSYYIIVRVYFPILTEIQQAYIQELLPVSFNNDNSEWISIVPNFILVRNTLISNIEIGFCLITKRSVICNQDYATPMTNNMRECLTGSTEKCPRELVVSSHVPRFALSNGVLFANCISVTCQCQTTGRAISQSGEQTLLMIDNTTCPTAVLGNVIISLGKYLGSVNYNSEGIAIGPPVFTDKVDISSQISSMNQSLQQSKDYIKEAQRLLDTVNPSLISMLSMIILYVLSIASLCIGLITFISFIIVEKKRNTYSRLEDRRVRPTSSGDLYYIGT
Chain of NiV F and NiV G glycoproteins (Q9IH63 27-109 partner limits assumed): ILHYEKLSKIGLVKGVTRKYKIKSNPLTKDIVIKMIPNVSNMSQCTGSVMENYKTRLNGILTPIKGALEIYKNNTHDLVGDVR
Chain of HeV F and HeV G glycoproteins (O89342 110-546 limits assumed): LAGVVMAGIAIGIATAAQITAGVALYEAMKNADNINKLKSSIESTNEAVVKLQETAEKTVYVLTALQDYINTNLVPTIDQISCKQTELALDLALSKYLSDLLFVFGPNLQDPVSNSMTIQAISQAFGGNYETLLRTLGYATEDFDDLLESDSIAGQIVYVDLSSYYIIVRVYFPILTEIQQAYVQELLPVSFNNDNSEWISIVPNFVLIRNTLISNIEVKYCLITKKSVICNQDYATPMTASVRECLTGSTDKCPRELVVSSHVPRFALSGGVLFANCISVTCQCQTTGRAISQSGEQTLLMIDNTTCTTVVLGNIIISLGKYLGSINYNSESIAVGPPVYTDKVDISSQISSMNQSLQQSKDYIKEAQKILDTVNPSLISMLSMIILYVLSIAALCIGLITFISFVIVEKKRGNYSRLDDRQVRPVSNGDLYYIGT
Chain of HeV F and HeV G glycoproteins (O89342 27-109 partner limits assumed): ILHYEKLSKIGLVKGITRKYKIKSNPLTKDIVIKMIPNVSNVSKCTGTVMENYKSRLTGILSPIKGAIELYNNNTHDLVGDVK

Row | Compound | reduction of activity versus N-PEG-NiV FC2 [1] | reduction of activity versus N-PEG-NiV FC2 [2] | inhibitory effect on cell-fusion (in words) [1] | inhibitory effect on cell-fusion (in words) [2] | effect on virus infection (in words) [3] | syncytial morphology and size (in words) [3] | effect on virus infection (in words) [4] | syncytial morphology and size (in words) [4]
1 | CC[C@H](C)[C@H](NC(=O)[C@H](Cc1ccc(O)cc1)NC(=O)[C@H](CC(=O)O)NC(=O)[C@H](CCCCN)NC(=O)[C@H](CO)NC(=O)[C@H](CCC(N)=O)NC(=O)[C@H](CCC(N)=O)NC(=O)[C@H](CC(C)C)NC(=O)[C@H](CO)NC(=O)[C@H](CCC(N)=O)NC(=O)[C@H](CC(N)=O)NC(=O)[C@H](CCSC)NC(=O)[C@H](CO)NC(=O)[C@H](CO)NC(=O)[C@@H](NC(=O)[C@H](CCC(N)=O)NC(=O)[C@H](CO)NC(=O)[C@H](CO)NC(=O)[C@@H](NC(=O)[C@H](CC(=O)O)NC(=O)[C@@H](NC(=O)[C@H](CCCCN)NC(C)=O)C(C)C)[C@@H](C)CC)[C@@H](C)CC)C(=O)N[C@@H](CCCCN)C(=O)N[C@@H](CCC(=O)O)C(=O)N[C@@H](C)C(=O)N[C@@H](CCC(N)=O)C(=O)N[C@@H](CCCNC(=N)N)C(=O)N[C@@H](CC(C)C)C(=O)N[C@@H](CC(C)C)C(=O)N[C@@H](CC(=O)O)C(=O)N[C@H](C(=O)N[C@H](C(=O)N[C@@H](CC(N)=O)C(=O)N1CCC[C@H]1C(=O)N[C@@H](CO)C(=O)N[C@@H](CC(C)C)C(=O)NCCOCCOCCOCCOCCOCCOCCOCCOCCOCCOCCOCCOCCC(=O)O)C(C)C)[C@@H](C)O [C-PEG NiV FC2] | approximately 20 fold | approximately 20 fold |  |  |  |  |  | 
2 | KQSSMISLQSQKSINSLPSQIRDYVQKTVLLAEDND [C-PEG-ScNiV FC2, reference compound] |  |  | no inhibitory activity | no inhibitory activity | no effect at any concentration tested | identical to those observed in the absence of any peptide | no effect at any concentration tested | identical to those observed in the absence of any peptide
3 | Ac-KQSSMISLQSQKSINSLPSQIRDYVQKTVLLAEDND-NH2 [capped-ScNiV FC2] |  |  | no inhibitory effect | no inhibitory effect |  |  |  | 

Source: paper PMC1208959 (Virology Journal, 2005)
